Usually IC50 stands for the point on the concentration scale where inhibition reaches its midpoint. A lower IC50 goes with higher potency.

Values after ≈ are worked out from the molar mass of the structure shown.

One experiment deals with CCRF-HSB-2. The experiment in a line: Compound was evaluated for the cytotoxicity against human T-cell leukemia, CCRF-HSB-2 by using MTT assay. Format: functional, cell-based. A general note: Formazan colour is commonly taken as a measure of viable cells.
For a further experiment, the system named is Human alphaherpesvirus 1. The experiment is described as follows: Compound was evaluated for the antiviral activity against Herpes simplex virus type 1 (HSV-1) VR-3 strain by using plaque reduction assay. The conditions noted are these: read-out: ED50 (the source's name). Format: functional. For orientation: In a plaque reduction assay, fewer plaques than in the control indicate reduced infectivity or spread.

Another experiment concerns Human alphaherpesvirus 3. The experiment is described as follows: Compound was evaluated for the antiviral activity against Varicella-Zoster virus (VZV) Oka strain by using plaque reduction assay. Format: functional. Particulars: read-out: ED50 (the source's name).
The next experiment deals with Human alphaherpesvirus 2. The experiment in a line: Compound was evaluated for the antiviral activity against Herpes simplex virus type 2 (HSV-2) MS strain by using plaque reduction assay. Format: functional. Particulars: read-out: ED50 (the source's name).

`C[C@@]1(CO)O[C@H](n2ccc(N)nc2=O)C[C@H]1O` showed an IC50 in the experiment with CCRF-HSB-2 of 0.12 µg/mL (≈ 0.497 µM). The EC50 with Human alphaherpesvirus 1 is 0.071 µg/mL (≈ 0.294 µM); in the experiment on Human alphaherpesvirus 3, 0.094 µg/mL (≈ 0.39 µM); in the experiment on Human alphaherpesvirus 2, 0.27 µg/mL (≈ 1.12 µM).

As for `O=c1[nH]c(=O)n([C@@H]2O[C@H](CO)[C@@H](O)[C@H]2O)cc1/C=C/Br`, the IC50 in the experiment on CCRF-HSB-2 was greater than 100 µg/mL. In addition, the EC50 in the experiment on Human alphaherpesvirus 1 stood at 0.048 µg/mL (≈ 0.137 µM); in the experiment on Human alphaherpesvirus 3 it was 0.00083 µg/mL (≈ 0.00238 µM); in the experiment with Human alphaherpesvirus 2, 62 µg/mL (≈ 178 µM).

Consider `C[C@]1(CO)OC(n2cc(/C=C/Br)c(=O)[nH]c2=O)[C@H](O)[C@@H]1O` (stereo not given in full), for which the 50% inhibitory concentration (IC50) in the experiment on CCRF-HSB-2 is greater than 100 µg/mL. In addition, the EC50 amounted to 24.4 µg/mL (≈ 67.2 µM) with Human alphaherpesvirus 1, 0.18 µg/mL (≈ 0.496 µM) in the experiment with Human alphaherpesvirus 3 and 63.5 µg/mL (≈ 175 µM) with Human alphaherpesvirus 2.

The compound `C[C@]1(CO)O[C@@H](n2cc(/C=C/Br)c(=O)[nH]c2=O)CC1O` (single isomer, unassigned) came in with an IC50 in the experiment with CCRF-HSB-2 of 0.45 µg/mL (≈ 1.3 µM). Also, the EC50 in the experiment with Human alphaherpesvirus 1 was 0.0053 µg/mL (≈ 0.0153 µM); in the experiment with Human alphaherpesvirus 3 it was 0.00077 µg/mL (≈ 0.00222 µM); in the experiment with Human alphaherpesvirus 2, 0.26 µg/mL (≈ 0.749 µM).

On to `O=c1[nH]c(=O)n([C@H]2C[C@H](O)[C@@H](CO)O2)cc1/C=C/Br` [BRIVUDINE], for which, in the experiment with CCRF-HSB-2, the IC50 is greater than 100 µg/mL. Moreover, the EC50 in the experiment with Human alphaherpesvirus 1 was 0.052 µg/mL (≈ 0.156 µM); in the experiment with Human alphaherpesvirus 3, 0.013 µg/mL (≈ 0.039 µM); in the experiment on Human alphaherpesvirus 2, greater than 100 µg/mL.

The values are drawn from ChEMBL document CHEMBL1132073, “Synthesis of novel 4'-C-methyl-pyrimidine nucleosides and their biological activities” (Bioorg Med Chem Lett, 1999).
